This is an account of results in patent US20240025906A1 (NEURON23, INC., priority 2022, published 2024).

The target of assay [1] is T1, TYK2 JH2 (Homo sapiens, UniProt P29597).
T1 construct: purchased DiscoverX (KINOMEscan KdELECT service); host or cells: E. coli BL21-derived (T7 phage display) or HEK-293
Kind of assay: TYK2 JH2 binding assay (KINOMEscan KdELECT competitive binding). The conditions noted are these: TYK2 JH2 domain, KINOMEscan KdELECT (Assay A); read-out: Biochemical TYK2_DiscoverX_JH2_BND_Kd. The method in brief: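 Competition binding, KdELECT format. Kinase (phage-tagged, E. coli BL21-derived host; or HEK-293, DNA-tagged) + ligand-coated streptavidin beads + cpd, 1 h RT, final DMSO 0.9%. Wash, elute 30 min with 0.5 μM non-biotinylated ligand; qPCR readout. Kd: 11-pt, 3-fold series.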

Assay [2] concerns JAK1/TYK2 pSTAT5 (Tyr694/699) in THP-1 cell line. The assay can be described thus: IFNa-stimulated JAK1/TYK2 pSTAT5 (Tyr694/699) inhibition cellular assay, AlphaLISA. In kind it is cell-based. To be noted: Homo sapiens; THP-1 cells, IFNa-stimulated, AlphaLISA (Assay B); read-out: Cellular_THP1_IFNa-pSTATS_TYK2. In short, it runs like this: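 pSTAT5 (Tyr694/699) in lysates quantified by AlphaLISA (615 nm) after 30 min IFNa stimulation (100 ng/mL stock) of THP-1 cells. The cells, 2e4 per well in HBSS, had first been exposed 1 h at 37° C. to eight 6-fold compound dilutions, 10000 down to 0.04 nM final. IC50 fitted by 4PL regression, bottom 0, Hill slope −1.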

T1 sequence (P29597 589-875 limits assumed): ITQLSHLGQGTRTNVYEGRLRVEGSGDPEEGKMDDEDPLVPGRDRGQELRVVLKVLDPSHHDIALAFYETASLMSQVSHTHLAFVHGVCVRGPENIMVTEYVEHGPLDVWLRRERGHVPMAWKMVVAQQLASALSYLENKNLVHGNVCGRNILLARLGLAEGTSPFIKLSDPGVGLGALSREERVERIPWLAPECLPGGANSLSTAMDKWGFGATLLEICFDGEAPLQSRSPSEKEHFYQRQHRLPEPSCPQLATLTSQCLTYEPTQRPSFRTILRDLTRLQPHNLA

Regarding `CNc1ncc(C#Cc2ccc(O[C@H]3CCOC3)cc2)c2cc(NC(=O)C3CC3)ncc12` [Example 691, (S)—N-(8-(methylamino)-5-((4-((tetrahydrofuran-3-yl)oxy)phenyl)ethynyl)-2,7-naphthyridin-3-yl)cyclopropanecarboxamide], the Kd in assay [1] was at most 100 nM. For the same compound, the IC50 in assay [2] was at most 500 nM.
For `CNc1ncc(C#Cc2ccc3nc(COC)n(C)c3c2)c2cc(NC(=O)C3CC3)ncc12` [Example 692, N-(5-((2-(methoxymethyl)-1-methyl-1H-benzoimidazol-6-yl)ethynyl)-8-(methylamino)-2,7-naphthyridin-3-yl)cyclopropanecarboxamide], in assay [1], the Kd is at most 100 nM. Also, the IC50 in assay [2] is at most 500 nM.
For `CNc1ncc(C#Cc2ccc3ncn(CCCOC)c3c2)c2cc(NC(=O)C3CC3)ncc12` [Example 693, N-(5-((1-(3-methoxypropyl)-1H-benzo[d]imidazol-6-yl)ethynyl)-8-(methylamino)-2,7-naphthyridin-3-yl)cyclopropanecarboxamide], the Kd in assay [1] is at most 100 nM. Also, in assay [2], the IC50 was at most 500 nM.
With `CNc1ncc(C#Cc2ccc3ncn(CCCC#N)c3c2)c2cc(NC(=O)C3CC3)ncc12` [Example 694, N-(5-((1-(3-cyanopropyl)-1H-benzo[d]imidazol-6-yl)ethynyl)-8-(methylamino)-2,7-naphthyridin-3-yl)cyclopropanecarboxamide], the Kd in assay [1] was at most 100 nM. Moreover, the IC50 in assay [2] was at most 500 nM.
For `CNc1ncc(C#Cc2ccc3c(c2)ncn3CCCC#N)c2cc(NC(=O)C3CC3)ncc12` [Example 695, N-(5-((1-(3-cyanopropyl)-1H-benzo[d]imidazol-5-yl)ethynyl)-8-(methylamino)-2,7-naphthyridin-3-yl)cyclopropanecarboxamide], in assay [1], the Kd is at most 100 nM. The IC50 in assay [2] is at most 500 nM.
With `CNc1ncc(C#Cc2ccc3c(c2)OCC(CO)O3)c2cc(NC(=O)C3CC3)ncc12` (stereo not shown) [Example 696, N-(5-((2-(hydroxymethyl)-2,3-dihydrobenzo[b][1,4]dioxin-6-yl)ethynyl)-8-(methylamino)-2,7-naphthyridin-3-yl)cyclopropanecarboxamide], in assay [1], the Kd was at most 100 nM. Further, in assay [2], the IC50 was at most 500 nM.
Take `CNc1ncc(C#Cc2ccc3c(c2)OCC(COC)O3)c2cc(NC(=O)C3CC3)ncc12` (stereo not shown) [Example 697, N-(5-((2-(methoxymethyl)-2,3-dihydrobenzo[b][1,4]dioxin-6-yl)ethynyl)-8-(methylamino)-2,7-naphthyridin-3-yl)cyclopropanecarboxamide]: the Kd in assay [1] is at most 100 nM. Besides, the IC50 in assay [2] is at most 500 nM.
`CNc1ncc(C#Cc2cc3c(cc2C)nnn3C)c2cc(NC(=O)C3CC3)ncc12` [Example 700, N-(5-((1,5-dimethyl-1H-benzo[d][1,2,3]triazol-6-yl)ethynyl)-8-(methylamino)-2,7-naphthyridin-3-yl)cyclopropanecarboxamide]: in assay [1], the Kd is at most 100 nM. For the same compound, the IC50 in assay [2] was at most 500 nM.
The like results for `CNc1ncc(C#Cc2ccc(OCC3(C)COC3)cc2)c2cc(NC(=O)C3CC3)ncc12` [Example 701, N-(8-(methylamino)-5-((4-((3-methyloxetan-3-yl)methoxy)phenyl)ethynyl)-2,7-naphthyridin-3-yl)cyclopropanecarboxamide] were, in that order, at most 100 nM and at most 500 nM.
`CNc1ncc(C#Cc2ccc(OCC3CCO3)cc2)c2cc(NC(=O)C3CC3)ncc12` (stereo not shown) [Example 702, N-(8-(methylamino)-5-((4-(oxetan-2-ylmethoxy)phenyl)ethynyl)-2,7-naphthyridin-3-yl)cyclopropanecarboxamide]: the Kd in assay [1] is at most 100 nM. Further, the IC50 in assay [2] is at most 500 nM.
For the compound `CNc1ncc(C#Cc2ccc(OC[C@@H](C)OC)cc2)c2cc(NC(=O)C3CC3)ncc12` [Example 703, (R)—N-(5-((4-(2-methoxypropoxy)phenyl)ethynyl)-8-(methylamino)-2,7-naphthyridin-3-yl)cyclopropanecarboxamide], in assay [1], the Kd was at most 100 nM. Also, the IC50 in assay [2] is at most 500 nM.
The like results for `CNc1ncc(C#Cc2ccc(OC[C@H](C)OC)cc2)c2cc(NC(=O)C3CC3)ncc12` [Example 704, (S)—N-(5-((4-(2-methoxypropoxy)phenyl)ethynyl)-8-(methylamino)-2,7-naphthyridin-3-yl)cyclopropanecarboxamide] were, in that order, at most 100 nM and at most 500 nM.
Take `CNc1ncc(C#Cc2ccc(OC3CN(C(C)=O)C3)cc2)c2cc(NC(=O)C3CC3)ncc12` [Example 705, N-(5-((4-((1-acetylazetidin-3-yl)oxy)phenyl)ethynyl)-8-(methylamino)-2,7-naphthyridin-3-yl)cyclopropanecarboxamide]: in assay [1], the Kd is at most 100 nM. Further, in assay [2], the IC50 was at most 500 nM.
For `CNc1ncc(C#Cc2ccc(OC3(C)COC3)cc2)c2cc(NC(=O)C3CC3)ncc12` [Example 706, N-(8-(methylamino)-5-((4-((3-methyloxetan-3-yl)oxy)phenyl)ethynyl)-2,7-naphthyridin-3-yl)cyclopropanecarboxamide], in that order: at most 100 nM and at most 500 nM.
The like results for `CNc1ncc(C#Cc2ccc(OC3COC3)cc2)c2cc(NC(=O)C3CC3)ncc12` [Example 707, N-(8-(methylamino)-5-((4-(oxetan-3-yloxy)phenyl)ethynyl)-2,7-naphthyridin-3-yl)cyclopropanecarboxamide] were, in that order, at most 100 nM and at most 500 nM.
As to `CNc1ncc(C#Cc2ccc(N3CCO[C@H](C)C3)cc2)c2cc(NC(=O)C3CC3)ncc12` [Example 708, (R)—N-(8-(methylamino)-5-((4-(2-methylmorpholino)phenyl)ethynyl)-2,7-naphthyridin-3-yl)cyclopropanecarboxamide], the Kd in assay [1] is at most 100 nM. Further, the IC50 in assay [2] was at most 500 nM.
Consider `CNc1ncc(C#Cc2ccc(N3CCO[C@@H](C)C3)cc2)c2cc(NC(=O)C3CC3)ncc12` [Example 709, (S)—N-(8-(methylamino)-5-((4-(2-methylmorpholino)phenyl)ethynyl)-2,7-naphthyridin-3-yl)cyclopropanecarboxamide], for which, in assay [1], the Kd is at most 100 nM. In addition, the IC50 in assay [2] is at most 500 nM.
The like results for `CNc1ncc(C#Cc2ccc(OCC(C)(C)C#N)cc2)c2cc(NC(=O)C3CC3)ncc12` [Example 710, N-(5-((4-(2-cyano-2-methylpropoxy)phenyl)ethynyl)-8-(methylamino)-2,7-naphthyridin-3-yl)cyclopropanecarboxamide] were, in that order, at most 100 nM and at most 500 nM.
Regarding `CNc1ncc(C#Cc2ccc(Oc3ncn(C)n3)cc2)c2cc(NC(=O)C3CC3)ncc12` [Example 711, N-(5-((4-((1-methyl-1H-1,2,4-triazol-3-yl)oxy)phenyl)ethynyl)-8-(methylamino)-2,7-naphthyridin-3-yl)cyclopropanecarboxamide], the Kd in assay [1] was at most 100 nM. In addition, the IC50 in assay [2] was at most 500 nM.
In the case of `CNc1ncc(C#Cc2ccc(OCC3CN(C)C3)cc2)c2cc(NC(=O)C3CC3)ncc12` [Example 712, N-(8-(methylamino)-5-((4-((1-methylazetidin-3-yl)methoxy)phenyl)ethynyl)-2,7-naphthyridin-3-yl)cyclopropanecarboxamide], in assay [1], the Kd is at most 100 nM. Also, the IC50 in assay [2] is at most 500 nM.
Turning to `CNc1ncc(C#Cc2ccc(OC(C)CC3COC3)cc2)c2cc(NC(=O)C3CC3)ncc12` (stereo not shown) [Example 713, N-(8-(methylamino)-5-((4-((1-(oxetan-3-yl)propan-2-yl)oxy)phenyl)ethynyl)-2,7-naphthyridin-3-yl)cyclopropanecarboxamide], the Kd in assay [1] was at most 100 nM. Moreover, the IC50 in assay [2] is at most 500 nM.
Take `CNc1ncc(C#Cc2ccc(OCC(C)(C)O)cc2)c2cc(NC(=O)C3CC3)ncc12` [Example 714, N-(5-((4-(2-hydroxy-2-methylpropoxy)phenyl)ethynyl)-8-(methylamino)-2,7-naphthyridin-3-yl)cyclopropanecarboxamide]: the Kd in assay [1] is at most 100 nM. Moreover, in assay [2], the IC50 was at most 500 nM.
As to `CNc1ncc(C#Cc2ccc(OC3CN(S(C)(=O)=O)C3)cc2)c2cc(NC(=O)C3CC3)ncc12` [Example 715, N-(8-(methylamino)-5-((4-((1-(methylsulfonyl)azetidin-3-yl)oxy)phenyl)ethynyl)-2,7-naphthyridin-3-yl)cyclopropanecarboxamide], in assay [1], the Kd was at most 100 nM. The IC50 in assay [2] was at most 500 nM.
For `CNc1ncc(C#Cc2ccc3cc(COC)n(C)c3c2)c2cc(NC(=O)C3CC3)ncc12` [Example 716, N-(5-((2-(methoxymethyl)-1-methyl-1H-indol-6-yl)ethynyl)-8-(methylamino)-2,7-naphthyridin-3-yl)cyclopropanecarboxamide], in assay [1], the Kd was at most 100 nM. Besides, the IC50 in assay [2] is at most 500 nM.
In the case of `CNc1ncc(C#Cc2ccc3oc(COC)cc3c2)c2cc(NC(=O)C3CC3)ncc12` [Example 717, N-(5-((2-(methoxymethyl)benzofuran-5-yl)ethynyl)-8-(methylamino)-2,7-naphthyridin-3-yl)cyclopropanecarboxamide], in assay [1], the Kd is at most 100 nM. For the same compound, the IC50 in assay [2] was at most 500 nM.
Take `CNc1ncc(C#Cc2cc(F)c(OC)cn2)c2cc(NC(=O)C3CC3)ncc12` [Example 718, N-(5-((4-fluoro-5-methoxypyridin-2-yl)ethynyl)-8-(methylamino)-2,7-naphthyridin-3-yl)cyclopropanecarboxamide]: the Kd in assay [1] was at most 100 nM. In assay [2], the IC50 was at most 500 nM.
